Target: unphosphorylated-BTK kinase domain (UP-BTK), GST-tagged human BTK (389-659aa) (Homo sapiens (Human), UniProt Q06187)
Experiment: BTK kinase Lanthascreen binding assay
Conditions: Lanthascreen tracer competition, 60 minutes incubation, pIC50 = negative log of the IC50 in molar
In short: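 Values are pIC50, i.e. negative log of IC50 in molar, derived from concentration–response fitting. Each compound competes with a fluorescently labelled tracer for the unphosphorylated kinase domain.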

Sequence of unphosphorylated-BTK kinase domain (UP-BTK), GST-tagged human BTK (389-659aa) (Q06187 389-659): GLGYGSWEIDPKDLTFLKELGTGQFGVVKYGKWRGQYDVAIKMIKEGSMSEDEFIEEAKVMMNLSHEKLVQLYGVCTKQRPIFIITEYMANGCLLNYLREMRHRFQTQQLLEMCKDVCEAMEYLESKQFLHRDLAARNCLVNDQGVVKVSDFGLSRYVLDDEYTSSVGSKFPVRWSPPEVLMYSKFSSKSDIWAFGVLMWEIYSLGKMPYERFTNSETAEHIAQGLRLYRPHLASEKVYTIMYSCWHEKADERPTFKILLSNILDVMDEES

SMILES	BTK_I_binding pIC50	IC50 (read-out: BTK_I_binding pIC50 (converted))
C=CC(=O)N1CCC[C@@H](NC(=O)c2sc3nccc4c3c2NC(=O)N4c2ncc(Oc3ccccc3)cn2)C1 [Example 665, (R)—N-(1-Acryloylpiperidin-3-yl)-4-oxo-5-(5-phenoxypyrimidin-2-yl)-4,5-dihydro-3H-1-thia-3,5,8-triazaacenaphthylene-2-carboxamide]	7.8	–
C=CC(=O)N1CCC[C@@H](NC(=O)c2sc3nccc4c3c2NC(=O)N4c2cnc(Oc3ccccc3)cc2C)C1 [Example 667, (R)—N-(1-Acryloylpiperidin-3-yl)-5-(4-methyl-6-phenoxypyridin-3-yl)-4-oxo-4,5-dihydro-3H-1-thia-3,5,8-triazaacenaphthylene-2-carboxamide]	7.9	–
C=CC(=O)N1CCC[C@@H](NC(=O)c2sc3nccc4c3c2NC(=O)N4c2ccc(Oc3ccccc3)nc2C)C1 [Example 670, (R)—N-(1-Acryloylpiperidin-3-yl)-5-(2-methyl-6-phenoxypyridin-3-yl)-4-oxo-4,5-dihydro-3H-1-thia-3,5,8-triazaacenaphthylene-2-carboxamide]	8.2	–
C=CC(=O)N1CCC[C@@H](NC(=O)c2sc3nccc4c3c2NC(=O)N4c2cnc(OC3CCC3)cc2C)C1 [Example 672, (R)—N-(1-Acryloylpiperidin-3-yl)-5-(6-cyclobutoxy-4-methylpyridin-3-yl)-4-oxo-4,5-dihydro-3H-1-thia-3,5,8-triazaacenaphthylene-2-carboxamide]	7.6	–
C=CC(=O)N1CC[C@@H](NC(=O)c2sc3nccc4c3c2NC(=O)N4c2cccc(-c3cccc(F)c3F)c2)C1 [Example 673, (R)—N-(1-Acryloylpyrrolidin-3-yl)-5-(2′,3′-difluoro-[1,1′-biphenyl]-3-yl)-4-oxo-4,5-dihydro-3H-1-thia-3,5,8-triazaacenaphthylene-2-carboxamide]	8.2	–
C=CC(=O)N1C[C@@H](O)C[C@@H](NC(=O)c2sc3nccc4c3c2NC(=O)N4c2cccc(-c3cccc(F)c3F)c2)C1 [Example 674, N-((3R,5S)-1-Acryloyl-5-hydroxypiperidin-3-yl)-5-(2′,3′-difluoro-[1,1′-biphenyl]-3-yl)-4-oxo-4,5-dihydro-3H-1-thia-3,5,8-triazaacenaphthylene-2-carboxamide]	8.2	–
C=CC(=O)N1CCC[C@@H](NC(=O)c2sc3nccc4c3c2NC(=O)N4c2ccnc(C3CCCCC3)c2)C1 [Example 677, (R)—N-(1-Acryloylpiperidin-3-yl)-5-(2-cyclohexylpyridin-4-yl)-4-oxo-4,5-dihydro-3H-1-thia-3,5,8-triazaacenaphthylene-2-carboxamide]	7.3	–
C=CC(=O)N1CCC[C@@H](NC(=O)c2sc3nccc4c3c2NC(=O)N4c2cnnc(-c3ccccc3)c2)C1 [Example 678, (R)—N-(1-Acryloylpiperidin-3-yl)-4-oxo-5-(6-phenylpyridazin-4-yl)-4,5-dihydro-3H-1-thia-3,5,8-triazaacenaphthylene-2-carboxamide]	7.3	–
C=CC(=O)N1C[C@H](NC(=O)c2sc3nccc4c3c2NC(=O)N4c2cccc(-c3cccc(F)c3F)c2)C[C@H](OC)C1 [Example 679, N-((3R,5S)-1-Acryloyl-5-methoxypiperidin-3-yl)-5-(2′3′-difluoro-[1,1′-biphenyl]-3-yl)-4-oxo-4,5-dihydro-3H-1-thia-3,5,8-triazaacenaphthylene-2-carboxamide]	7.8	–
C=CC(=O)N1CC[C@@H](NC(=O)c2sc3nccc4c3c2NC(=O)N4c2ccc(Oc3ccccc3)nc2)C1 [Example 680, (R)—N-(1-Acryloylpyrrolidin-3-yl)-4-oxo-5-(6-phenoxypyridin-3-yl)-4,5-dihydro-3H-1-thia-3,5,8-triazaacenaphthylene-2-carboxamide]	7.3	–
CC(=O)N1CCC[C@H]1/C=C(\C#N)C(=O)N1CCC[C@@H](NC(=O)c2sc3nccc4c3c2NC(=O)N4c2ccc(Oc3ccccc3)cc2C)C1 [Example 681, N—((R)-1-((*E)-3-((S)-1-Acetylpyrrolidin-2-yl)-2-cyanoacryloyl)piperidin-3-yl)-5-(2-methyl-4-phenoxyphenyl)-4-oxo-4,5-dihydro-3H-1-thia-3,5,8-triazaacenaphthylene-2-carboxamide]	7.7	–
CC(=O)N1CCC[C@@H]1/C=C(\C#N)C(=O)N1CCC[C@@H](NC(=O)c2sc3nccc4c3c2NC(=O)N4c2ccc(Oc3ccccc3)cc2C)C1 [Example 683, N—((R)-1-((E)-3-((R)-1-Acetylpyrrolidin-2-yl)-2-cyanoacryloyl)piperidin-3-.l)-5-(2-methyl-4-phenoxyphenyl)-4-oxo-4,5-dihydro-3H-1-thia-3,5,8-triazaacenaphthylene-2-carboxamide]	7.7	–
C=CC(=O)N1CCC[C@@H](NC(=O)c2sc3nccc4c3c2NC(=O)N4c2cc(-c3ccccc3)ncn2)C1 [Example 685, (R)—N-(1-Acryloylpiperidin-3-yl)-4-oxo-5-(6-phenylpyrimidin-4-yl)-4,5-dihydro-3H-1-thia-3,5,8-triazaacenaphthylene-2-carboxamide]	8.1	–
C=CC(=O)N1CCC[C@@H](NC(=O)c2sc3nccc4c3c2NC(=O)N4c2ccc(Oc3ccccc3)c(Cl)c2)C1 [Example 686, (R)—N-(1-Acryloylpiperidin-3-yl)-5-(3-chloro-4-phenoxyphenyl)-4-oxo-4,5-dihydro-3H-1-thia-3,5,8-triazaacenaphthylene-2-carboxamide]	7.6	–
C=CC(=O)N1CCC[C@@H](NC(=O)c2sc3nccc4c3c2NC(=O)N4c2ccc(OC3CCC3)nc2)C1 [Example 687, (R)—N-(1-Acryloylpiperidin-3-yl)-5-(6-cyclobutoxypyridin-3-yl)-4-oxo-4,5-dihydro-3H-1-thia-3,5,8-triazaacenaphthylene-2-carboxamide]	7.5	–
C=CC(=O)N1CCC[C@@H](NC(=O)c2sc3nccc4c3c2NC(=O)N4c2cc(-c3ccccc3)ccc2C)C1 [Example 688, (R)—N-(1-Acryloylpiperidin-3-yl)-5-(4-methyl-[1,1′-biphenyl]-3-yl)-4-oxo-4,5-dihydro-3H-1-thia-3,5,8-triazaacenaphthylene-2-carboxamide]	7.5	–
C=CC(=O)N1CCC[C@@H](NC(=O)c2sc3nccc4c3c2NC(=O)N4c2cccc(CC(C)C)c2)C1 [Example 689, (R)—N-(1-Acryloylpiperidin-3-yl)-5-(3-isobutylphenyl)-4-oxo-4,5-dihydro-3H-1-thia-3,5,8-triazaacenaphthylene-2-carboxamide]	7.6	–
C=CC(=O)N1CCC[C@@H](NC(=O)c2sc3nccc4c3c2NC(=O)N4c2ccnc(C3CCCC3)c2)C1 [Example 692, (R)—N-(1-Acryloylpiperidin-3-yl)-5-(2-cyclopentylpyridin-4-yl)-4-oxo-4,5-dihydro-3H-1-thia-3,5,8-triazaacenaphthylene-2-carboxamide]	8.0	–
C=CC(=O)N1CCC[C@@H](NC(=O)c2sc3nccc4c3c2NC(=O)N4c2ccc(OC3CCCC3)cc2C)C1 [Example 693, (R)—N-(1-Acryloylpiperidin-3-yl)-5-(4-(cyclopentyloxy)-2-methylphenyl)-4-oxo-4,5-dihydro-3H-1-thia-3,5,8-triazaacenaphthylene-2-carboxamide]	7.9	–
C=CC(=O)N1CCC[C@@H](NC(=O)c2sc3nccc4c3c2NC(=O)N4c2ccc(OC)cc2C)C1 [Example 694, (R)—N-(1-Acryloylpiperidin-3-yl)-5-(4-methoxy-2-methylphenyl)-4-oxo-4,5-dihydro-3H-1-thia-3,5,8-triazaacenaphthylene-2-carboxamide]	7.1	–
C=CC(=O)N1CCC[C@@H](NC(=O)c2sc3nccc4c3c2NC(=O)N4c2cc(-c3ccccc3)ncc2C)C1 [Example 695, (R)—N-(1-Acryloylpiperidin-3-yl)-5-(5-methyl-2-phenylpyridin-4-yl)-4-oxo-4,5-dihydro-3H-1-thia-3,5,8-triazaacenaphthylene-2-carboxamide]	7.3	–
C=CC(=O)N1CCC[C@@H](NC(=O)c2sc3nccc4c3c2NC(=O)N4c2ccc(OCCOC(C)C)cc2C)C1 [Example 696, (R)—N-(1-Acryloylpiperidin-3-yl)-5-(4-(2-isopropoxyethoxy)-2-methylphenyl)-4-oxo-4,5-dihydro-3H-1-thia-3,5,8-triazaacenaphthylene-2-carboxamide]	6.9	–
C=CC(=O)N1CCC[C@@H](NC(=O)c2sc3nccc4c3c2NC(=O)N4c2ccnc(C(C)C)c2)C1 [Example 697, (R)—N-(1-Acryloylpiperidin-3-yl)-5-(2-isopropylpyridin-4-yl)-4-oxo-4,5-dihydro-3H-1-thia-3,5,8-triazaacenaphthylene-2-carboxamide]	6.9	–
C=CC(=O)N1CC[C@@H](NC(=O)c2sc3nccc4c3c2NC(=O)N4c2ccc(Oc3ccccc3)cn2)C1 [Example 698, (R)—N-(1-Acryloylpyrrolidin-3-yl)-4-oxo-5-(5-phenoxypyridin-2-yl)-4,5-dihydro-3H-1-thia-3,5,8-triazaacenaphthylene-2-carboxamide]	–	31.6 nM
C=CC(=O)N1CC[C@@H](NC(=O)c2sc3nccc4c3c2NC(=O)N4c2cnc(Oc3ccccc3)cn2)C1 [Example 699, (R)—N-(1-Acryloylpyrrolidin-3-yl)-4-oxo-5-(5-phenoxypyrazin-2-yl)-4,5-dihydro-3H-1-thia-3,5,8-triazaacenaphthylene-2-carboxamide]	7.2	–
